Source: PubChem BioAssay (NCI)
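Following 48 hours of exposure in 96-well plates, responses at five concentrations were used to interpolate endpoints linearly. GI50: concentration for 50% inhibition of growth. At the TGI there is no net growth.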

Tests used:
Experiment in all cases: NCI tumour cell line growth inhibition, 48 h
SK-OV-3 ovarian = test system: SK-OV-3 ovarian
DMS 114 small cell lung = test system: DMS 114 small cell lung
SNB-75 CNS = test system: SNB-75 CNS
OVCAR-8 ovarian = test system: OVCAR-8 ovarian
SF-295 CNS = test system: SF-295 CNS
M14 melanoma = test system: M14 melanoma
HOP-18 NSCLC = test system: HOP-18 NSCLC
MOLT-4 leukemia = test system: MOLT-4 leukemia
DLD-1 colon = test system: DLD-1 colon
HS 578T breast = test system: HS 578T breast
OVCAR-4 ovarian = test system: OVCAR-4 ovarian
KM20L2 colon = test system: KM20L2 colon
PC-3 prostate = test system: PC-3 prostate
NCI/ADR-RES ovarian = test system: NCI/ADR-RES ovarian
MCF7 breast = test system: MCF7 breast
UACC-62 melanoma = test system: UACC-62 melanoma
LOX IMVI melanoma = test system: LOX IMVI melanoma
DU-145 prostate = test system: DU-145 prostate
HCC-2998 colon = test system: HCC-2998 colon
COLO 205 colon = test system: COLO 205 colon
TK-10 renal = test system: TK-10 renal
HL-60(TB) leukemia = test system: HL-60(TB) leukemia
OVCAR-3 ovarian = test system: OVCAR-3 ovarian
SW-620 colon = test system: SW-620 colon
NCI-H522 lung = test system: NCI-H522 lung
UO-31 renal = test system: UO-31 renal
RXF 393 renal = test system: RXF 393 renal
HOP-92 NSCLC = test system: HOP-92 NSCLC
KM12 colon = test system: KM12 colon
XF 498 CNS = test system: XF 498 CNS
K-562 leukemia = test system: K-562 leukemia
A498 renal = test system: A498 renal
EKVX NSCLC = test system: EKVX NSCLC
IGROV1 ovarian = test system: IGROV1 ovarian
ACHN renal = test system: ACHN renal
CCRF-CEM leukemia = test system: CCRF-CEM leukemia
HT29 colon = test system: HT29 colon
LXFL 529 NSCLC = test system: LXFL 529 NSCLC
HCT-15 colon = test system: HCT-15 colon
OVCAR-5 ovarian = test system: OVCAR-5 ovarian
BT-549 breast = test system: BT-549 breast
NCI-H23 lung = test system: NCI-H23 lung
SK-MEL-28 melanoma = test system: SK-MEL-28 melanoma
SR leukemia = test system: SR leukemia
SNB-19 CNS = test system: SNB-19 CNS
T-47D breast = test system: T-47D breast
DMS 273 small cell lung = test system: DMS 273 small cell lung
U251 CNS = test system: U251 CNS
MALME-3M melanoma = test system: MALME-3M melanoma
SF-268 CNS = test system: SF-268 CNS
786-0 renal = test system: 786-0 renal
MDA-MB-435 = test system: MDA-MB-435
NCI-H226 lung = test system: NCI-H226 lung
RPMI-8226 leukemia = test system: RPMI-8226 leukemia
SF-539 CNS = test system: SF-539 CNS
RXF-631 renal = test system: RXF-631 renal
UACC-257 melanoma = test system: UACC-257 melanoma
HCT-116 colon = test system: HCT-116 colon
MDA-N = test system: MDA-N
HOP-62 NSCLC = test system: HOP-62 NSCLC
M19-MEL melanoma = test system: M19-MEL melanoma
SK-MEL-5 melanoma = test system: SK-MEL-5 melanoma
CAKI-1 renal = test system: CAKI-1 renal
NCI-H460 lung = test system: NCI-H460 lung
SNB-78 CNS = test system: SNB-78 CNS
SK-MEL-2 melanoma = test system: SK-MEL-2 melanoma
A549 NSCLC = test system: A549 NSCLC
MDA-MB-231 breast = test system: MDA-MB-231 breast
SN12C renal = test system: SN12C renal

SMILES: C=C(CCCCCCCCC)CC(=O)SCCNC(=O)CCNC(=O)C(O)C(C)(C)COP(=O)(O)OP(=O)(O)OCC1OC(n2cnc3c(N)ncnc32)C(O)C1OP(=O)(O)O (configuration not stated)
- TGI (SK-OV-3 ovarian): > 100 µM
- TGI (DMS 114 small cell lung): > 100 µM
- TGI (SNB-75 CNS): 58.8 µM
- TGI (OVCAR-8 ovarian): > 100 µM
- TGI (SF-295 CNS): > 100 µM
- TGI (M14 melanoma): 65 µM
- TGI (HOP-18 NSCLC): > 100 µM
- TGI (MOLT-4 leukemia): > 100 µM
- TGI (DLD-1 colon): > 100 µM
- TGI (HS 578T breast): > 100 µM
- TGI (OVCAR-4 ovarian): > 100 µM
- TGI (KM20L2 colon): > 100 µM
- TGI (PC-3 prostate): > 100 µM
- TGI (NCI/ADR-RES ovarian): > 100 µM
- TGI (MCF7 breast): > 100 µM
- TGI (UACC-62 melanoma): 46.1 µM
- TGI (LOX IMVI melanoma): 75.7 µM
- TGI (DU-145 prostate): > 100 µM
- TGI (HCC-2998 colon): > 100 µM
- TGI (COLO 205 colon): > 100 µM
- TGI (TK-10 renal): > 100 µM
- TGI (HL-60(TB) leukemia): > 90.9 µM
- TGI (OVCAR-3 ovarian): > 100 µM
- TGI (SW-620 colon): > 100 µM
- TGI (NCI-H522 lung): > 100 µM
- TGI (UO-31 renal): > 100 µM
- TGI (RXF 393 renal): > 100 µM
- TGI (HOP-92 NSCLC): > 100 µM
- TGI (KM12 colon): > 100 µM
- TGI (XF 498 CNS): > 100 µM
- TGI (K-562 leukemia): > 31.6 µM
- TGI (A498 renal): > 100 µM
- TGI (EKVX NSCLC): > 100 µM
- TGI (IGROV1 ovarian): > 100 µM
- TGI (ACHN renal): > 100 µM
- TGI (CCRF-CEM leukemia): > 100 µM
- TGI (HT29 colon): > 100 µM
- TGI (LXFL 529 NSCLC): > 100 µM
- TGI (HCT-15 colon): > 100 µM
- TGI (OVCAR-5 ovarian): > 100 µM
- TGI (BT-549 breast): > 100 µM
- TGI (NCI-H23 lung): > 100 µM
- TGI (SK-MEL-28 melanoma): 21.6 µM
- TGI (SR leukemia): > 100 µM
- TGI (SNB-19 CNS): > 100 µM
- TGI (T-47D breast): > 100 µM
- TGI (DMS 273 small cell lung): 45.2 µM
- TGI (U251 CNS): > 100 µM
- TGI (MALME-3M melanoma): > 100 µM
- TGI (SF-268 CNS): 15.3 µM
- TGI (786-0 renal): > 100 µM
- TGI (MDA-MB-435): 67.7 µM
- TGI (NCI-H226 lung): > 100 µM
- TGI (RPMI-8226 leukemia): 62.7 µM
- TGI (SF-539 CNS): > 85.6 µM
- TGI (RXF-631 renal): > 100 µM
- TGI (UACC-257 melanoma): > 100 µM
- TGI (HCT-116 colon): > 100 µM
- TGI (MDA-N): > 76.6 µM
- TGI (HOP-62 NSCLC): > 85.7 µM
- TGI (M19-MEL melanoma): 87.8 µM
- TGI (SK-MEL-5 melanoma): 52.2 µM
- TGI (CAKI-1 renal): > 100 µM
- TGI (NCI-H460 lung): > 100 µM
- TGI (SNB-78 CNS): 65 µM
- TGI (SK-MEL-2 melanoma): 99.3 µM
- TGI (A549 NSCLC): > 100 µM
- TGI (MDA-MB-231 breast): > 100 µM
- TGI (SN12C renal): > 100 µM

SMILES: CCOC(=O)C1(Br)C(c2ccccc2)NC(=O)NC1(C)Br (configuration not stated)
- TGI (SK-OV-3 ovarian): > 100 µM
- TGI (DMS 114 small cell lung): > 100 µM
- TGI (SNB-75 CNS): > 100 µM
- TGI (OVCAR-8 ovarian): > 100 µM
- TGI (SF-295 CNS): > 100 µM
- TGI (M14 melanoma): > 100 µM
- TGI (HOP-18 NSCLC): > 100 µM
- TGI (MOLT-4 leukemia): > 73.7 µM
- TGI (DLD-1 colon): > 100 µM
- GI50 (HS 578T breast): 37.4 µM
- TGI (HS 578T breast): > 100 µM
- GI50 (OVCAR-4 ovarian): 30.3 µM
- TGI (OVCAR-4 ovarian): > 100 µM
- TGI (KM20L2 colon): > 100 µM
- GI50 (PC-3 prostate): 22.3 µM
- TGI (PC-3 prostate): > 100 µM
- GI50 (NCI/ADR-RES ovarian): 28.1 µM
- TGI (NCI/ADR-RES ovarian): 89.8 µM
- GI50 (MCF7 breast): 28.1 µM
- TGI (MCF7 breast): > 100 µM
- TGI (UACC-62 melanoma): > 100 µM
- TGI (LOX IMVI melanoma): > 58.4 µM
- GI50 (DU-145 prostate): 44.5 µM
- TGI (DU-145 prostate): > 100 µM
- TGI (HCC-2998 colon): > 100 µM
- TGI (COLO 205 colon): > 100 µM
- TGI (TK-10 renal): > 100 µM
- TGI (HL-60(TB) leukemia): 46.4 µM
- TGI (OVCAR-3 ovarian): > 100 µM
- TGI (NCI-H522 lung): > 53.2 µM
- TGI (UO-31 renal): > 100 µM
- TGI (RXF 393 renal): > 100 µM
- TGI (HOP-92 NSCLC): > 93.5 µM
- TGI (KM12 colon): > 100 µM
- TGI (XF 498 CNS): > 100 µM
- TGI (K-562 leukemia): > 94.5 µM
- TGI (A498 renal): > 100 µM
- TGI (EKVX NSCLC): > 100 µM
- TGI (IGROV1 ovarian): > 100 µM
- TGI (ACHN renal): > 100 µM
- TGI (CCRF-CEM leukemia): 99.8 µM
- TGI (HT29 colon): > 100 µM
- TGI (LXFL 529 NSCLC): > 100 µM
- TGI (HCT-15 colon): > 100 µM
- TGI (OVCAR-5 ovarian): > 100 µM
- GI50 (BT-549 breast): 14 µM
- TGI (BT-549 breast): 65.9 µM
- TGI (NCI-H23 lung): > 100 µM
- TGI (SK-MEL-28 melanoma): > 100 µM
- TGI (SR leukemia): > 100 µM
- TGI (SNB-19 CNS): > 66 µM
- GI50 (T-47D breast): 47.3 µM
- TGI (T-47D breast): > 100 µM
- TGI (DMS 273 small cell lung): > 100 µM
- TGI (U251 CNS): 49.4 µM
- TGI (MALME-3M melanoma): > 100 µM
- TGI (SF-268 CNS): > 100 µM
- TGI (786-0 renal): > 100 µM
- GI50 (MDA-MB-435): 20.5 µM
- TGI (MDA-MB-435): 57.3 µM
- TGI (NCI-H226 lung): > 100 µM
- TGI (RPMI-8226 leukemia): > 88.9 µM
- GI50 (SF-539 CNS): > 100 µM
- TGI (SF-539 CNS): > 100 µM
- TGI (RXF-631 renal): > 100 µM
- TGI (UACC-257 melanoma): > 100 µM
- TGI (HCT-116 colon): > 100 µM
- TGI (HOP-62 NSCLC): > 100 µM
- TGI (M19-MEL melanoma): > 100 µM
- TGI (SK-MEL-5 melanoma): > 100 µM
- TGI (CAKI-1 renal): > 62.4 µM
- TGI (NCI-H460 lung): > 100 µM
- TGI (SNB-78 CNS): > 100 µM
- TGI (SK-MEL-2 melanoma): > 100 µM
- TGI (A549 NSCLC): > 100 µM
- GI50 (MDA-MB-231 breast): 27.8 µM
- TGI (MDA-MB-231 breast): > 100 µM
- TGI (SN12C renal): > 100 µM
